Experimental data: US9556231B2, “Beta-hairpin peptidomimetics as CXC4 antagonists” (POLYPHOR AG, priority 2011, dated 2017)
Where two headings read alike, the source gives them in different places. Bridge positions count the residues as written; N and C are the ends. Square brackets hold non-standard residues; d marks the D form. Peptide text beside a SMILES is read from it. Lys(iPr) = CC(C)NCCCC[C@H](N)C(=O)O; Orn(iPr) = CC(C)NCCC[C@H](N)C(=O)O; Dab = NCC[C@H](N)C(=O)O

Assays:
[1] = Cytotoxicity, MTT reduction assay, HELA cells; assay type: cell-based; conditions: human
Procedure: (§1) Namalwa cells (CXCR4 natively expressing non-adherent cells, ATCC CRL-1432) were cultured in RPMI1640 plus 10% FBS, and pen/strept. HELA cells were maintained in RPMI1640 plus 10% FBS, pen/strept and 2 mM L-glutamine. Cos-7 cells were grown in DMEM medium with […] glucose supplemented with 10% FCS, pen/strept and 2 mM L-glutamine. All cell lines were grown at 37° C. at 5% CO2. Cell media, media supplements, PBS-buffer, HEPES, antibiotic/antimycotic, pen/strept, non essential amino acid, L-glutamine, β-mercaptoethanol and sera were purchased from Gibco (Pailsey, UK). All fine chemicals were supplied by Merck (Darmstadt, Germany).
(§2) The cytotoxicity of the peptides to HELA cells (Acc57) and COS-7 cells (CRL-1651) was determined using the MTT reduction assay (T. Mossman, J. Immunol. Meth. 1983, 65, 55-63; M. V. Berridge, A. S. Tan, Arch. Biochem. Biophys. 1993, 303, 474-482). Briefly, the method was as follows: 4000 HELA cells/well and 3400 COS-7 cells/well were seeded and grown in 96-well microtiter plates for 24 h at 37° C. at 5% CO2. Thereafter, time zero (Tz) was determined by MTT reduction (see below). The supernatant of the remaining wells was discarded, and fresh medium and compounds in serial dilutions (12.5, 25 and 50 μM, triplicates; 0 μM, blank) were pipetted into the wells. After incubation of the cells for 48 h at 37° C. at 5% CO2 the supernatant was discarded again and 100 μL MTT reagent (0.5 mg/mL in RPMI1640 and DMEM, respectively)/well was added. Following incubation at 37° C. for 2-4 h the media were aspirated and the cells were spiked (100 μL isopropanol/well). The absorbance of the solubilized formazan was measured at 595 nm (OD595peptide). For each concentration averages were calculated from triplicates. The percentage of growth was calculated as follows: (OD595peptide−OD595Tz)/(OD595blank−OD595Tz)×100%. The GI50 (Growth Inhibition) concentrations were calculated for each peptide by using a trend line function for the concentrations (50, 25, 12.5 and 0 μM), the corresponding percentages and the value 50, (=TREND (C50:C0,%50:%0,50).

[2] = Plasma stability, human plasma; assay type: in vitro ADME; conditions: 37° C., 1440 min, read-out: human pl. cpd left at 1440 min
Procedure: (§3) The stability of the peptides in human and mouse plasma was determined by applying the following method: 346.5 μL/deep well of freshly thawed human plasma (Basler Blutspende-dienst) and mouse plasma (Harlan Sera-Lab, UK), respectively, were spiked with 3.5 μL/well of compound dissolved in DMSO/H2O (90/10 [v/v], 1 mM, triplicate) and incubated at 37° C. At t=0, 15, 30, 60, 120, 240 and 1440 min aliquots of 50 μL were transferred to filtration plate wells containing 150 μL/well of 2% formic acid in acetonitrile. Following shaking for 2 min the occurred suspensions were filtrated by vacuum. 100 μL of each filtrate were transferred to a propylene microtiter plate and dried under N2. The residual solids were reconstituted by adding 100 μL/well of water/acetonitrile, 95/5 (v/v)+0.2% formic acid and analyzed by LC/MS as follows: Column: Waters, XBridge C18, mobile phases: (A) water+0.1% formic acid and (B) acetonitrile/water, 95/5 (v/v)+0.1% formic acid, gradient: 5%-100% (B) in 1.8 minutes, electrospray ionization, MRM detection (triple quadrupole). The peak areas were determined and triplicate values are averaged. The stability is expressed in percent of the initial value at t=0·(tx/t0×100). By using the TREND function of EXCEL (Microsoft Office 2003) T1/2 were determined.

[3] = Plasma stability, mouse plasma; assay type: in vitro ADME; conditions: 37° C.; for remaining at 24 h / remaining at 24 h, 10 μM: 1440 min, read-out: mouse pl. cpd left at 1440 min; for mouse pl. T1/2: up to 1440 min
Procedure: as §3

Plasma protein binding = assay type: in vitro ADME; conditions: for fraction unbound: human, plasma; for fraction unbound at 1 h, 10 μM: human plasma
Procedure: 495 μL aliquots of human plasma (Basler Blutspendedienst) as well as 495 μL aliquots of PBS were placed in individual deepwells of a polypropylene plate (Greiner) and spiked each with 5 μL of 1 mM solutions of peptides in 90% DMSO. After shaking the plate for 2 min at 600 rpm 150 μL aliquots of the plasma/peptide mixtures were transferred in triplicates to the polypropylene filter plate (10 kDa, Millipore) whereas 150 μL aliquots of the PBS/peptide mixtures were transferred either to the individual wells of the filter plate (filtered controls) or directly into the individual wells of the receiving plate (Greiner) (non-filtered controls). The plate sandwich consisting of filter and receiving plate was incubated for 1 h at 37° C. and subsequently centrifuged at 3220 g for 2 h at 15° C. The filtrates in the receiving plate were analysed by LC/MS as follows: Column: Waters, XBridge C18, mobile phases: (A) water+0.1% formic acid and (B) acetonitrile/water, 95/5 (v/v)+0.1% formic acid, gradient: 5%-100% (B) in 1.8 min, electrospray ionization, MRM detection (triple quadrupole). The peak areas were determined and triplicate values are averaged. The binding is expressed in percent of the filtered and non-filtered controls by 100−(100×T1h/Tctr). Finally the average of these values is calculated.

[4] = Cytotoxicity, MTT reduction assay, COS-7 cells; assay type: cell-based; conditions: African green monkey
Procedure: as §1, §2

[5] = ultrafiltration 10 kDa, read-out: Plasma protein binding (converted)
[6] = MTT, 48 h, up to 50 μM, read-out: Cytotoxicity Hela Cells GI50
[7] = MTT, 48 h, up to 50 μM, read-out: Cytotoxicity Cos-7 Cells GI50

Compound | GI50 at 48 h [1] [µM] | remaining at 24 h [2] [%] | remaining at 24 h [3] [%] | mouse pl. T1/2 [3] [h] | fraction unbound (Plasma protein binding; read-out: Fraction unbound, fu) | fraction unbound (Plasma protein binding; [5]) | GI50 at 48 h [4] [µM] | GI50 at 48 h [1, 6] [µM] | remaining at 24 h, 10 μM [2] [%] | remaining at 24 h, 10 μM [3] [%] | fraction unbound at 1 h, 10 μM (Plasma protein binding; ultrafiltration 10 kDa) | GI50 at 48 h [4, 7] [µM]
COc1ccc(C[C@H]2NC(=O)[C@H](C)NC(=O)[C@H](CO)NC(=O)[C@@H]3CSSC[C@H](NC(=O)[C@H](Cc4ccc(O)cc4)NC(=O)[C@H](CCCNC(=N)N)NC(=O)[C@H](CCCNC(C)C)NC2=O)C(=O)N[C@@H](Cc2ccc(O)cc2)C(=O)N[C@@H](CCC(N)=O)C(=O)N[C@@H](CCCCNC(C)C)C(=O)N2CCC[C@@H]2C(=O)N2CCC[C@H]2C(=O)N[C@@H](Cc2ccc(O)cc2)C(=O)N[C@@H](Cc2c[nH]cn2)C(=O)N[C@@H](C)C(=O)N3)cc1 [Ex. 4, cyclo(-Tyr^1-His^2-Ala^3-Cys^4-Ser^5-Ala^6-^DTyr(Me)^7-Orn(iPr)^8-Arg^9-Tyr^10-Cys^11-Tyr^12-Gln^13-Lys(iPr)^14-^DPro^15-Pro^16-), disulfide bond between Cys^4 and Cys^11] (cyclo(YHACSA[dY](Me)[Orn(iPr)]RYCYQ[Lys(iPr)][dP]P); disulfide 4-11) | > 50 | 94 | 60 | 24 | 0.44 | 0.44 | > 50 |  |  |  |  | 
CC(C)NCCCC[C@@H]1NC(=O)[C@H](CCC(N)=O)NC(=O)[C@H](Cc2ccc(O)cc2)NC(=O)[C@@H]2CSSC[C@H](NC(=O)[C@H](Cc3ccc(O)cc3)NC(=O)[C@H](Cc3c[nH]cn3)NC(=O)[C@H](Cc3ccc(O)cc3)NC(=O)[C@@H]3CCCN3C(=O)[C@H]3CCCN3C1=O)C(=O)N[C@@H](CO)C(=O)N[C@@H](C)C(=O)N1CCC[C@@H]1C(=O)N[C@@H](CCCNC(C)C)C(=O)N[C@@H](CCCNC(=N)N)C(=O)N[C@@H](Cc1ccc(O)cc1)C(=O)N2 [Ex. 1, cyclo(-Tyr^1-His^2-Tyr^3-Cys^4-Ser^5-Ala^6-^DPro^7-Orn(iPr)^8-Arg^9-Tyr^10-Cys^11-Tyr^12-Gln^13-Lys(iPr)^14-^DPro^15-Pro^16-) disulfide bond between Cys^4 and Cys^11] (cyclo(YHYCSA[dP][Orn(iPr)]RYCYQ[Lys(iPr)][dP]P); disulfide 4-11) | > 50 | 77 | 100 | 24 | 0.7 | 0.7 | > 50 |  |  |  |  | 
COc1ccc(C[C@@H]2NC(=O)[C@H](Cc3c[nH]cn3)NC(=O)[C@H](Cc3ccc(O)cc3)NC(=O)[C@@H]3CCCN3C(=O)[C@H]3CCCN3C(=O)[C@H](CCCCNC(C)C)NC(=O)[C@H](CCC(N)=O)NC(=O)[C@H](Cc3ccc(O)cc3)NC(=O)[C@@H]3CSSC[C@H](NC2=O)C(=O)N[C@@H](CO)C(=O)N[C@@H](C)C(=O)N[C@H](Cc2ccc(OC)cc2)C(=O)N[C@@H](CCCNC(C)C)C(=O)N[C@@H](CCCNC(=N)N)C(=O)N[C@@H](Cc2ccc(O)cc2)C(=O)N3)cc1 [Ex. 6, cyclo(-Tyr^1-His^2-Tyr(Me)^3-Cys^4-Ser^5-Ala^6-^DTyr(Me)^7-Orn(iPr)^8-Arg^9-Tyr^10-Cys^11-Tyr^12-Gln^13-Lys(iPr)^14-^DPro^15-Pro^16-), disulfide bond between Cys^4 and Cys^11] (cyclo(YHY(Me)CSA[dY](Me)[Orn(iPr)]RYCYQ[Lys(iPr)][dP]P); disulfide 4-11) |  |  |  | 24 |  |  |  | > 50 | 83 | 68 | 0.37 | > 50
COc1ccc(C[C@@H]2NC(=O)[C@H](Cc3c[nH]cn3)NC(=O)[C@H](Cc3ccc(O)cc3)NC(=O)[C@@H]3CCCN3C(=O)[C@H]3CCCN3C(=O)[C@H](CCCCNC(C)C)NC(=O)[C@H](CCC(N)=O)NC(=O)[C@H](Cc3ccc(O)cc3)NC(=O)[C@@H]3CSSC[C@H](NC2=O)C(=O)N[C@@H](CO)C(=O)N[C@@H](C)C(=O)N2CCC[C@@H]2C(=O)N[C@@H](CCCNC(C)C)C(=O)N[C@@H](CCCNC(=N)N)C(=O)N[C@@H](Cc2ccc(O)cc2)C(=O)N3)cc1 [Ex. 2, cyclo(-Tyr^1-His^2-Tyr(Me)^3-Cys^4-Ser^5-Ala^6-^DPro^7-Orn(iPr)^8-Arg^9-Tyr^10-Cys^11-Tyr^12-Gln^13-Lys(iPr)^14-^DPro^15-Pro^16-), disulfide bond between Cys^4 and Cys^11] (cyclo(YHY(Me)CSA[dP][Orn(iPr)]RYCYQ[Lys(iPr)][dP]P); disulfide 4-11) | > 41 | 100 | 100 | 24 | 0.52 | 0.52 | > 50 |  |  |  |  | 
CC(C)NCCCC[C@@H]1NC(=O)[C@H](CCC(N)=O)NC(=O)[C@H](Cc2ccc(O)cc2)NC(=O)[C@@H]2CSSC[C@H](NC(=O)[C@H](C)NC(=O)[C@H](Cc3c[nH]cn3)NC(=O)[C@H](Cc3ccc(O)cc3)NC(=O)[C@@H]3CCCN3C(=O)[C@H]3CCCN3C1=O)C(=O)N[C@@H](CO)C(=O)N[C@@H](C)C(=O)N[C@H](Cc1ccc(O)cc1)C(=O)N[C@@H](CCN)C(=O)N[C@@H](CCCNC(=N)N)C(=O)N[C@@H](Cc1ccc(O)cc1)C(=O)N2 [Ex. 3, cyclo(-Tyr^1-His^2-Ala^3-Cys^4-Ser^5-Ala^6-^DTyr^7-Dab^8-Arg^9-Tyr^10-Cys^11-Tyr^12-Gln^13-Lys(iPr)^14-^DPro^15-Pro^16-), disulfide bond between Cys^4 and Cys^11] (cyclo(YHACSA[dY][Dab]RYCYQ[Lys(iPr)][dP]P); disulfide 4-11) |  |  |  | 24 |  |  |  | > 50 | 100 | 98 | 0.52 | > 50
